According to patent publication US20020143064A1, “Novel use of compounds of the chalcones class” (priority 2000, published 2002):

Each compound was assayed on HDMEC cells (Human Dermal Microvascular Endothelial Cells) (assay: Detachment of endothelial cells in vitro (HDMEC detachment test)). Settings: Endothelial cell, 2 h, 1 μM compound, two hours treatment, plates precoated with fibronectin, vitronectin or gelatin, calcein fluorescence, relative to untreated control, mean of six samples, >=15% regarded as significant, read-out: Percentage of detachment of HDMEC cells induced by 1 μM of compound.
Type: cell-based
Description: A test for the determination of the detachment of endothelial cells has been developed in order to select products with respect to their “in vitro” activity. Such test was employed in the present invention. By way of this test, the endothelial cells were inoculated in plates, the bottom of which were covered with at least one binding agent, for example, chosen from gelatin, fibronectin, and vitronectin. The inoculated endothelial cells were then cultured. The cultured endothelial cells were treated with a medium comprising the test compound. The cells were then labeled with a fluorescent substance. The detached cells were removed by washing; and the fluorescence of the remaining cells was counted with a fluorimeter.
This test measures the detachment of endothelial cells cultured on substrata based on at least one binding agent, for example, chosen from fibronectin, vitronectin, and gelatin. Generally, one day after the cells were seeded in plates, which comprised, for example, 96 wells, the culture medium was replaced by a medium, which comprised the test compound in the absence of serum. The same preparation was prepared six times at three different concentrations ([…]) and the control was prepared six times without addition of antivascular product. After the cells were treated for two hours with the test substance, the cells were labeled with calcein AM (1.6 μg/ml) in culture medium supplemented with 0.1% of BSA. The cells that detached were removed by washing with culture medium comprising 0.1% of bovine serum albumin. 100 μl of medium were then added to each well. The fluorescence of the remaining cells was counted with a fluorimeter. The data obtained is expressed with respect to the control (untreated cells).
The evaluation of the detachment of endothelial cells in vitro was determined in the following way: HDMEC cells (Human Dermal Microvascular Endothelial Cells, Promocell, c-122102) were cultured in an ECGM-MV medium which comprised 5% of foetal calf serum, growth factors (EGF 10 ng/ml, hydrocortisone 1 μg/ml, 0.4% growth supplement with heparin) and antibiotics (amphotericin 50 ng/ml, gentamicin 50 μg/ml). For the detachment test, the HDMECs were inoculated at 5000 cells in clear-bottomed 96-well plates (Costar) precoated with fibronectin (10 μg/ml) or vitronectin (1 μg/ml) or gelatin. Twenty four hours later, the culture medium was replaced with ECGM-MV 0.1% BSA medium comprising the products shown. The concentrations tested were 0.1, 0.3 and 1 μM for each product. After treating for two hours, the cells were labeled for one hour with calcein (1.6 μg/ml, Molecular Probes) in ECGM-MV 0.1% BSA medium. The detached cells were subsequently removed by washing with ECGM-MV 0.1% BSA medium; 100 μl of medium was added to each well. The fluorescence of the cells which remained attached to the substratum of the well were counted using a fluorimeter, Spectrafluor Plus (Tecan, excitation 485 nm and emission 535 nm).
A cell detachment effect of greater than or equal to 15% is regarded as significant.
Compound `CCN(CC)c1ccc(/C=C(\C)C(=O)c2cc(OC)ccc2OC)cc1` [Example 2] has an inhibition at 1 µM of 20 to 23%. `CCN(CC)c1ccc(/C=C/C(=O)c2cc(OC)c(OC)c(OC)c2)cc1` [Example 11] gave an inhibition at 1 µM of 20%. `COc1cc(C(=O)/C(Cl)=C/c2ccc(N(C)C)cc2)cc(OC)c1OC` [Example 8] showed an inhibition at 1 µM of 23 to 43%. `COc1ccc(OC)c(C(=O)/C(C)=C/c2ccc(N(C)C)cc2)c1` [Example 1] showed an inhibition at 1 µM of 23 to 49%. In the case of `COc1ccc(C(=O)/C(Cl)=C/c2ccc(N(C)C)cc2)c(OC)c1OC` [Example 7], the inhibition at 1 µM was 22 to 42%. For `CCN(CC)c1ccc(/C=C(\C)C(=O)c2ccc(OC)c(OC)c2OC)cc1` [Example 6], the inhibition at 1 µM was 35 to 41%. Compound `COc1ccc(C(=O)/C=C/c2ccc(N(C)C)cc2)c(OC)c1OC` [Example 14] has an inhibition at 1 µM of 18 to 20%. For `CCCCNc1ccc(/C=C(\C)C(=O)c2cc(OC)c(OC)c(OC)c2)cc1` [Comparative Example 2, reference compound], the inhibition at 1 µM was 6%. Compound `COc1ccc(OC)c(C(=O)/C(Cl)=C/c2ccc(N(C)C)cc2)c1` [Example 3] has an inhibition at 1 µM of 25 to 29%. Compound `COc1ccc(C(=O)/C(Br)=C/c2ccc(N(C)C)cc2)c(OC)c1OC` [Example 13] has an inhibition at 1 µM of 23 to 34%. `COc1ccc(OC)c(C(=O)/C=C/c2ccc(NC(C)=O)cc2)c1` [Comparative Example 1, reference compound] was tested, and the inhibition at 1 µM was 2%. With `COc1ccc(OC)c(C(=O)/C=C/c2ccc(N(C)C)cc2)c1` [Example 4] the inhibition at 1 µM was 18 to 19%. Compound `COc1cc(C(=O)/C(C)=C/c2ccc(N(C)C)cc2)cc(OC)c1OC` [Example 5] has an inhibition at 1 µM of 15%. In the case of `CCN(CC)c1ccc(/C=C/C(=O)c2ccc(OC)c(OC)c2OC)cc1` [Example 9], the inhibition at 1 µM was 19%. For `CC/C(=C\c1ccc(N(C)C)cc1)C(=O)c1ccc(OC)c(OC)c1OC` [Example 10], the inhibition at 1 µM was 15%.
